Experimental findings from patent US5753650A, “Inhibitors of farnesyl-protein transferase” (Merck & Co., Inc., priority 1996, dated 1998) are described below.

This test concerns the target Farnesyl-protein transferase (FTase). Kind of test: In vitro inhibition of Ras farnesyl transferase (farnesylation of Ras-CVLS with [3H]FPP). Particulars: Ras-CVLS 3.5 μM, [3H]FPP 0.25 μM; partially purified bovine or recombinant human enzyme; read-out: IC50 (concentration of the test compound which gives 50% inhibition of FTase). The format is biochemical. Here is the method:
Farnesyl-protein transferase (FTase) from bovine brain was chromatographed on DEAE-Sephacel (Pharmacia, 0-0.8 M NaCl gradient elution), N-octyl agarose (Sigma, 0-0.6 M NaCl gradient elution), and a mono Q HPLC column (Pharmacia, 0-0.3 M NaCl gradient). Ras-CVLS at 3.5 μM, 0.25 μM [^3 H]FPP, and the indicated compounds were incubated with either a partially purified bovine enzyme preparation or a recombinant human enzyme preparation. The recombinant human enzyme was prepared as described in Omer, C. A., Kral, A. M., Diehl, R. E., Prendergast, G. C., Powers, S., Allen, C. M., Gibbs, J. B. and Kohl, N. E. (1993) Biochemistry 32:5167-5176. The FTase data presented below in Table 1 reflects the ability of the test compound to inhibit RAS farnesylation in vitro, as described in Pompliano, et al. Biochemistry 31:3800 (1992).
*(IC50 is the concentration of the test compound which gives 50%
inhibition of FTase under the described assay conditions)
As for `CN(C(=O)[C@@H](N)CS)C1N=C(c2ccccc2)c2ccccc2NC1=O` (single isomer, unassigned) [1 - faster eluting isomer], the IC50 was 2.6 µM.
As for “3-[N-2(S)-amino-3-mercaptopropionyl-N-methyl]amino-2,3-dihydro-2-oxo-5-phenyl-1H-1,4-benzodiazepine [1 - slower eluting isomer]”, the figure is 0.11 µM; as for `N[C@@H](CS)C(=O)NC1N=C(c2ccccc2)c2ccccc2NC1=O` (single isomer, unassigned) [2 - faster eluting isomer], 1.6 µM; as for `N[C@@H](CS)C(=O)NC1N=C(c2ccccc2)c2ccccc2NC1=O` (single isomer, unassigned) [2 - slower eluting isomer], 42 µM.
